This is an account of results in patent US20090197853A1, “METHODS AND COMPOSITIONS OF TREATING CANCER” (priority 2005, published 2009).

The series can be described thus: HPLC analysis of MGd stability in medium from plateau phase cultures. In kind it is physicochemical. As to conditions: after 24 hours. On the procedure: Results: Studies were performed to determine whether the metallothionein transcript up-regulation observed in the microarray analysis could be a consequence of free gadolinium(III) cation, released from MGd into the cell culture medium. […] Since the microarray analysis indicated strong transcript up-regulation after 4 hours of treatment with drug, this time interval was selected for further investigation of RNA transcript levels. RNA was harvested from plateau phase cultures treated with control vehicle, 50 μM MGd, or 5 μM Gd(OAc)3 for 4 hours. […] Thus, even assuming a 10% loss of drug over the initial 4 hour incubation period, the resulting release of Gd(III) ion into the culture medium would be insufficient to induce the observed metallothionein and ZnT1 transcript levels.

For the compound `CC(=O)[O-].CC(=O)[O-].CCc1c(CC)c2cc3nc(cnc4cc(OCCOCCOCCOC)c(OCCOCCOCCOC)cc4ncc4nc(cc1[n-]2)C(CCCO)=C4C)C(C)=C3CCCO.O.[Gd+3]` [MGd, Motexafin gadolinium], the “Apparent loss of drug in medium (HPLC)” value worked out at 4%.
